Results: PMC6801448, “The Antioxidant and Antiproliferative Activities of 1,2,3-Triazolyl-L-Ascorbic Acid Derivatives” (International Journal of Molecular Sciences, 2019)
Where two headings read alike, the source gives them in different places.

Assays:
[1] = test system: A549 (lung adenocarcinoma); assay: MTT proliferation assay, A549; format: cell-based; conditions: Homo sapiens, 72 h
Description: (§1) Human tumor cell lines HeLa (cervical carcinoma), SW620 (colorectal adenocarcinoma, metastatic), A549 (lung adenocarcinoma), MCF−7 (breast adenocarcinoma), CFPAC-1 (pancreatic adenocarcinoma, metastatic), HCT-116 (colorectal carcinoma), and HepG2 (hepatocellular carcinoma), and normal cell lines HFF-1 (foreskin fibroblasts) and WI-38 (immortalized human lung fibroblast), were from the US American Type Culture Collection (ATCC, Manassas, VA, USA). Cells were cultured in a liquid nutrient medium (Dulbecco’s Modified Eagle Medium, LONZA, Basel, Switzerland) supplemented with 10% fetal bovine serum (FBS, Gibco, Grand Island, NY, USA), 2 mM L-glutamine (GIBCO, Grand Island, NY, USA), 100 μg/mL penicillin, and 100 μg/mL streptomycin (LONZA, Basel, Switzerland), in an incubator (NÜVE, Ankara, Turkey), at a humid atmosphere with 5% CO2 at 37 °C. Trypsin/EDTA Solution (Lonza, Basel, Switzerland), was used for cell passaging and cell detachment.
(§2) Adherent cells were seeded on 96 well microtiter plates (Falcon, New York, NY, USA) at a seeding density of 5000 cells per well, added in 150 μL of cell suspension in a nutrient medium. 24 h after seeding, cells were treated with compound 4b–4g, 4i, 4k–4t, 4v, 7c–7g, and 7i–7q dilutions in the range of 0.01 μM to 100 μM. L-ascoric acid (Sigma Aldrich, Darmstadt, Germany) and Carboxyamidotriazole (Sigma Aldrich, Darmstadt, Germany) were used as control compounds. Incubation of the cells with the compounds were performed for 72 h in a 5% CO2, in humid atmosphere at 37 °C. After incubation, nutrient medium was removed and 40 μL of the MTT reagent ([…]-2,5-diphenyltetrazole bromide (Invitrogen, Carlsbad, CA, USA) was added to each well. 3 h after incubation, 160 μL of DMSO (VWR CHEMICALS, Radnor, PA, USA) were added to each well to dissolve the crystals of purple formazane. The absorbance was measured at 570 nm (TECAN SUNRISE Microtiter plate reader (Männedorf, Switzerland). The experimentally measured optical densities (OD) were converted to the PG (percentage of growth), using the formulas according to the protocol assumed by NIH (National Institute of Health). The IC50 values (concentration causing 50% cell growth inhibition) for each compound were calculated by regression analysis of the survival count curve of the concentrations of the tested compounds. The results were processed in Excel 2010 (Microsoft, Redmond, WA, USA).

[2] = test system: CFPAC-1 (ductal pancreatic adenocarcinoma); assay: MTT proliferation assay, CFPAC-1; format: cell-based; conditions: Homo sapiens, 72 h
Description: as §1, §2

[3] = test system: HCT-116 (colorectal carcinoma); assay: MTT proliferation assay, HCT-116; format: cell-based; conditions: Homo sapiens, 72 h
Description: as §1, §2

[4] = test system: HeLa (cervical carcinoma); assay: MTT proliferation assay, HeLa; format: cell-based; conditions: Homo sapiens, 72 h
Description: as §1, §2

[5] = test system: HepG2 (hepatocellular carcinoma); assay: MTT proliferation assay, HepG2; format: cell-based; conditions: Homo sapiens, 72 h
Description: as §1, §2

[6] = test system: MCF-7 (breast adenocarcinoma); assay: MTT proliferation assay, MCF-7; format: cell-based, Human; conditions: Homo sapiens, MCF7; 72 h, MTT
Description: as §1, §2

[7] = test system: SW620 (colorectal adenocarcinoma, metastatic); assay: MTT proliferation assay, SW620; format: cell-based; conditions: Homo sapiens, SW-620, 72 h
Description: as §1, §2

[8] = test system: HFF-1 (foreskin fibroblasts); assay: MTT proliferation assay, HFF-1; format: cell-based; conditions: Homo sapiens, 72 h, normal foreskin fibroblasts
Description: as §1, §2

[9] = test system: tested cell lines (A549, CFPAC-1, HCT-116, HeLa, HepG2, MCF-7, SW620, WI-38, HFF-1); assay: MTT proliferation assay, whole tested cell panel; format: cell-based, Human; conditions: 0.01 µM to 100 µM, 72 h
Description: The C-6 substituted 1,2,3-triazole derivatives of L-ASA within the C5-OH group ([…], 4i, 4k−4t, and 4v) and with the C4=C5 double bond (7c−7g and 7i−7q) were evaluated against seven malignant tumor cell lines: lung adenocarcinoma (A549), ductal pancreatic adenocarcinoma (CFPAC-1), colorectal carcinoma (HCT-116), cervical carcinoma (HeLa), hepatocellular carcinoma (HepG2), breast adenocarcinoma (MCF-7), colorectal adenocarcinoma, and metastatic (SW620); as well as normal cell lines: lung fibroblasts (WI-38) and foreskin fibroblasts (HFF-1) (Table 3, Table S1, Supplementary Information). L-ASA was used as a positive control, and carboxyamidotriazole, a known antiproliferative agent that inhibits tumor cell growth, invasion, and metastasis, and 5-fluorouracil (5-FU), were used as reference compounds.
as §1, §2

[10] = DPPH radical scavenging assay; format: biochemical
Description: Likewise, L-ASA, the 1,2,3-triazole L-ASA derivatives with free C2-OH and C3-OH groups were expected to be potent antioxidants. Therefore, they were tested as radical scavengers by reaction with the stable free radical 2,2-diphenyl-1-picrylhydrazyl (DPPH^•).
Antioxidant capacity of selected compounds was assessed by 2,2-diphenyl-1-picrylhydrazyl assay (DPPH, Sigma Aldrich, Darmstadt, Germany), in which the antioxidant activity of compounds is measured by the reaction between a stable radical of 1,1-diphenyl-2-picylhydrazil (DPPH^•) and a selected compound according to the manufacturer recommendations. Briefly, compounds 4b–4e, 4f–4h, 4k, 4l, 4o, 4p–4s, 4t, 4v, 7c–7f, 7i–7n, 7q, 7p, and 7o were tested at 0.06, 0.12, 0.18, 0.23, 0.25, and 0.28 mM. L-ascorbic acid was used as the reference compound. Absorbance was measured 5 and 10 min after incubation of the compounds with the DPPH reagent. The reduction of DPPH with selected compounds was monitored by measuring the absorbance at a wavelength of 517 nm on the monochromator (Infinite M200 PRO, TECAN, Männedorf, Switzerland).

WI-38 (lung fibroblasts) = assay: MTT proliferation assay, WI-38; format: cell-based; conditions: Homo sapiens, 72 h, normal lung fibroblasts
Description: as §1, §2

[11] = 5 min treatment, read-out: IC50 of DPPH• inhibition, Treatm. 5 min
[12] = 10 min treatment, read-out: IC50 of DPPH• inhibition, Treatm. 10 min

| SMILES | IC50 [1] | IC50 [2] | IC50 [3] | IC50 [4] | IC50 [5] | IC50 [6] | IC50 [7] | IC50 [10, 11] | IC50 [10, 12] | melting point | IC50 [8] | antiproliferative / cytotoxic effect on the tested cell lines (in words) [9] | IC50 (WI-38 (lung fibroblasts)) |
| --- | --- | --- | --- | --- | --- | --- | --- | --- | --- | --- | --- | --- | --- |
| O=C1O[C@H]([C@@H](O)Cn2cc(CCO)nn2)C(O)=C1O [Compound 4q, 6-deoxy-6-(4-(2-hydroxyethyl)-1,2,3-triazol-1-yl)-L-ascorbic acid] | > 100 µM | > 100 µM | 63.3 µM | > 100 µM | > 100 µM | > 100 µM | > 100 µM | 240 ± 20 µM | 230 µM | 184 to 186 °C | > 100 µM |  | > 100 µM |
| Cc1ccc(S(=O)(=O)NCc2cn(C[C@H](O)[C@H]3OC(=O)C(O)=C3O)nn2)cc1 [Compound 4r] | > 100 µM | > 100 µM | > 100 µM | > 100 µM | > 100 µM | > 100 µM | > 100 µM | 250 µM | 270 ± 20 µM | 125 to 127 °C | > 100 µM |  | > 100 µM |
| O=C1O[C@H]([C@@H](O)Cn2cc(CNS(=O)(=O)c3ccc(Cl)cc3)nn2)C(O)=C1O [Compound 4s] | > 100 µM | > 100 µM | > 100 µM | > 100 µM | > 100 µM | > 100 µM | > 100 µM | 270 ± 20 µM | 250 µM | 132 to 134 °C | 0.4 µM |  | > 100 µM |
| O=C1O[C@H]([C@@H](O)Cn2cc(CNS(=O)(=O)c3ccc(F)cc3Cl)nn2)C(O)=C1O [Compound 4t] | > 100 µM | > 100 µM | > 100 µM | > 100 µM | > 100 µM | > 100 µM | > 100 µM | 220 ± 80 µM | 120 ± 20 µM | 198 to 200 °C | > 100 µM |  | > 100 µM |

More lines, main results first:

| IC50 [1] | IC50 [2] | IC50 [3] | IC50 [4] | IC50 [5] | IC50 [6] | IC50 [7] | IC50 [10, 11] | IC50 [10, 12] | melting point | SMILES | IC50 [8] | antiproliferative / cytotoxic effect on the tested cell lines (in words) [9] | IC50 (WI-38 (lung fibroblasts)) |
| --- | --- | --- | --- | --- | --- | --- | --- | --- | --- | --- | --- | --- | --- |
| 51.6 µM | 41.6 µM | 19.9 µM | 31.8 µM | 40.1 µM | 14.7 µM | 41.3 µM |  |  |  | NC(=O)c1nnn(Cc2cc(Cl)c(C(=O)c3ccc(Cl)cc3)c(Cl)c2)c1N [Carboxyamidotriazole, carboxyamidotriazole, reference compound] | 32.6 µM | non-selective, moderate antiproliferative effect |  |
| > 100 µM | > 100 µM | > 100 µM | > 100 µM | > 100 µM | > 100 µM | > 100 µM | 130 µM | 130 µM | 219 to 221 °C | O=C1O[C@H]([C@@H](O)Cn2ccnn2)C(O)=C1O [Compound 4b, 6-deoxy-6-(1,2,3-triazol-1-yl)-L-ascorbic acid] |  | not cytotoxic | > 100 µM |
| > 100 µM | > 100 µM | > 100 µM | > 100 µM | > 100 µM | > 100 µM | > 100 µM | 190 ± 10 µM | 190 ± 10 µM |  | COc1ccc(-c2cn(C[C@H](O)[C@H]3OC(=O)C(O)=C3O)nn2)cc1 [Compound 4g, 6-deoxy-6-[4-methoxyphenyl-1,2,3-triazol-1-yl]-L-ascorbic acid] | > 100 µM | did not show any cytotoxic effects | > 100 µM |
| > 100 µM | > 100 µM | > 100 µM | 93 µM | > 100 µM | > 100 µM | > 100 µM | 240 ± 28 µM | 240 ± 40 µM | ≥ 250 °C | CC(C)(C)c1cn(C[C@H](O)[C@H]2OC(=O)C(O)=C2O)nn1 [Compound 4o, 6-[4-(tert-butyl)-1,2,3-triazol-1-yl]-6-deoxy-L-ascorbic acid] | < 0.01 µM |  | 95 µM |
| > 100 µM | > 100 µM | > 100 µM | 48 µM | > 100 µM | 99.6 µM | > 100 µM | 150 ± 60 µM | 150 ± 60 µM | 86 to 88 °C | O=C1O[C@H]([C@@H](O)Cn2cc(CCCCl)nn2)C(O)=C1O [Compound 4p, 6-[4-(3-chloropropyl)-1,2,3-triazol-1-yl]-6-deoxy-L-ascorbic acid] | 6.05 µM |  | 52.6 µM |
